{
  "source": "patent US20250120981A1",
  "about": "“MRTX1133 PHARMACEUTICAL COMPOSITIONS” (MIRATI THERAPEUTICS, INC., priority 2023, published 2025)",
  "experiment": "Pharmacokinetics in humans, MRTX1133 formulation, oral, single and multiple doses",
  "type": "in vivo",
  "details": "for AUCExtrap, Geo Mean: geometric mean of subjects",
  "method": "The pharmacokinetics [PK] of the MRTX1133 formulation after oral administration has been evaluated in 25 subjects across 3 escalating dose frequencies under fasting conditions (200 mg twice daily [BID], 400 mg BID, and 800 mg BID), as well as evaluation of 400 mg BID when administered with a low-fat meal (i.e., under fed conditions). The mean (+standard deviation) single-dose and multiple-dose pharmacokinetic profiles of the evaluated doses are presented in FIG. 9 and FIG. 10, respectively. Individual single- and multiple-dose PK profiles can be found in FIG. 11. For all figures, the X-axis represents nominal time of sample collection (hours [h]) and the Y-axis represents plasma concentration (ng/mL). Table 10 lists PK data following the oral administration of a single dose and multiple doses of MRTX1133 formulation by dose level and subject.",
  "key": {"[1]": {"details": "multiple oral doses of 800 mg BID, fasted, individual subjects 1-8"}, "[2]": {"details": "single oral dose of 200 mg, fasted, individual subjects"}, "[3]": {"details": "single oral dose of 400 mg with a low-fat meal, individual subjects"}, "[4]": {"details": "single oral dose of 400 mg, fasted, individual subjects"}, "[5]": {"details": "single oral dose of 800 mg, fasted, individual subjects 1-8"}},
  "note": "“And” between values parts separate entries of the source, which are not always exact repeats. Equal values may be shown once.",
  "data": [
    {"compound": "C#Cc1c(F)ccc2cc(O)cc(-c3ncc4c(N5C[C@H]6CC[C@@H](C5)N6)nc(OC[C@@]56CCCN5C[C@H](F)C6)nc4c3F)c12", "note": "[MRTX1133, 4-(4-((1R,5S)-3,8-diazabicyclo[3.2.1]octan-3-yl)-8-fluoro-2-(((2R,7aS)-2-fluorohexahydro-1Hpyrrolizin-7a-yl)methoxy)pyrido[4,3-d]pyrimidin-7-yl)-5-ethynyl-6-fluoronaphthalen-2-ol]", "values": [
      {"measurement": "AUC0-12", "setting": "[1]", "value": "227 ng·h/mL and 509 ng·h/mL and 130 ng·h/mL and 744 ng·h/mL and 248 ng·h/mL and 820 ng·h/mL and 264 ng·h/mL"},
      {"measurement": "AUC0-12 Accumulation Ratio", "setting": "[1]", "value": "0.79 and 0.20 and 0.71 and 4.46 and 1.87 and 1.41 and 1.05"},
      {"measurement": "AUC0-last", "setting": "[1]", "value": "227 ng · h/mL and 509 ng · h/mL and 130 ng · h/mL and 744 ng · h/mL and 248 ng · h/mL and 820 ng · h/mL and 4,458 ng · h/mL and 264 ng · h/mL"},
      {"measurement": "Cmax", "setting": "[1]", "value": "38.2 ng/mL and 241 ng/mL and 34.4 ng/mL and 165 ng/mL and 29.8 ng/mL and 105 ng/mL and 812 ng/mL and 72.6 ng/mL"},
      {"measurement": "Cmax Accumulation Ratio", "setting": "[1]", "value": "0.30 and 0.14 and 0.34 and 2.57 and 1.24 and 1.30 and 1.86 and 1.68"},
      {"measurement": "Peak to Trough Ratio", "setting": "[1]", "value": "15.0 and 12.5 and 17.1 and 13.8 and 2.81 and 2.88 and 10.4 and 20.0"},
      {"measurement": "Tlast", "setting": "[1]", "value": "12 h (7×) and 8 h"},
      {"measurement": "Tmax", "setting": "[1]", "value": "6.0 h and 0.5 h (3×)"},
      {"measurement": "Plasma concentration", "setting": "single oral dose of 200 mg, fasted, 0 h, individual subjects", "value": "BQL"},
      {"measurement": "Plasma concentration", "setting": "single oral dose of 200 mg, fasted, 0.5 h, individual subjects", "value": "BQL"},
      {"measurement": "Plasma concentration", "setting": "single oral dose of 200 mg, fasted, 1 h, individual subjects", "value": "116 ng/mL and 6.88 ng/mL and 44.6 ng/mL (2×) and 9.39 ng/mL"},
      {"measurement": "Plasma concentration", "setting": "single oral dose of 200 mg, fasted, 1.5 h, individual subjects", "value": "49.8 ng/mL and 3.38 ng/mL and 57.9 ng/mL and 41.4 ng/mL and 42.7 ng/mL"},
      {"measurement": "Plasma concentration", "setting": "single oral dose of 200 mg, fasted, 2 h, individual subjects", "value": "20.4 ng/mL and 4.01 ng/mL and 26.7 ng/mL and 23.5 ng/mL and 122 ng/mL"},
      {"measurement": "Plasma concentration", "setting": "single oral dose of 200 mg, fasted, 48 h, individual subjects", "value": "BQL"},
      {"measurement": "Plasma concentration", "setting": "single oral dose of 200 mg, fasted, 72 h, individual subjects", "value": "BQL"},
      {"measurement": "Plasma concentration", "setting": "single oral dose of 200 mg, fasted, 96 h, individual subjects", "value": "BQL"},
      {"measurement": "AUCExtrap, Geo Mean", "setting": "single oral dose of 200 mg, fasted", "value": 7.4, "unit": "%"},
      {"measurement": "AUC0-12", "setting": "[2]", "value": "140 ng·h/mL and 89.2 ng·h/mL and 98.1 ng·h/mL and 99.3 ng·h/mL and 585 ng·h/mL"},
      {"measurement": "AUC0-inf", "setting": "[2]", "value": "157 ng · h/mL and 107 ng · h/mL (2×) and 103 ng · h/mL and 653 ng · h/mL"},
      {"measurement": "AUC0-last", "setting": "[2]", "value": "152 ng·h/mL and 89.2 ng·h/mL and 98.1 ng·h/mL and 99.3 ng·h/mL and 585 ng·h/mL"},
      {"measurement": "AUCExtrap", "setting": "[2]", "value": "3.42% and 16.3% and 4.88% and 7.77% and 10.4%"},
      {"measurement": "Cmax", "setting": "[2]", "value": "116 ng/mL and 21.0 ng/mL and 57.9 ng/mL and 44.6 ng/mL and 122 ng/mL"},
      {"measurement": "Tlast", "setting": "[2]", "value": "24 h and 12 h (3×) and 12^a h"},
      {"measurement": "Plasma concentration", "setting": "single oral dose of 400 mg with a low-fat meal, 0 h, individual subjects", "value": "BQL"},
      {"measurement": "Plasma concentration", "setting": "single oral dose of 400 mg with a low-fat meal, 1 h, individual subjects", "value": "77.0 ng/mL and 18.7 ng/mL and 28.2 ng/mL and 85.1 ng/mL and 24.7 ng/mL"},
      {"measurement": "Plasma concentration", "setting": "single oral dose of 400 mg with a low-fat meal, 2 h, individual subjects", "value": "83.2 ng/mL and 39.9 ng/mL and 6.47 ng/mL and 76.4 ng/mL and 12.0 ng/mL"},
      {"measurement": "Plasma concentration", "setting": "single oral dose of 400 mg with a low-fat meal, 3 h, individual subjects", "value": "71.5 ng/mL and 3.84 ng/mL and 85.8 ng/mL and 13.6 ng/mL"},
      {"measurement": "Plasma concentration", "setting": "single oral dose of 400 mg with a low-fat meal, 4 h, individual subjects", "value": "65.9 ng/mL and 93.9 ng/mL and 2.43 ng/mL and 99.8 ng/mL and 36.5 ng/mL"},
      {"measurement": "Plasma concentration", "setting": "single oral dose of 400 mg with a low-fat meal, 5 h, individual subjects", "value": "41.4 ng/mL (2×) and 1.41 ng/mL and 163 ng/mL and 22.5 ng/mL"},
      {"measurement": "Plasma concentration", "setting": "single oral dose of 400 mg with a low-fat meal, 6 h, individual subjects", "value": "59.5 ng/mL and 16.9 ng/mL and 1.02 ng/mL and 125 ng/mL and 15.5 ng/mL"},
      {"measurement": "Plasma concentration", "setting": "single oral dose of 400 mg with a low-fat meal, 12 h, individual subjects", "value": "BQL"},
      {"measurement": "AUCExtrap, Geo Mean", "setting": "single oral dose of 400 mg with a low-fat meal", "value": 6.3, "unit": "%"},
      {"measurement": "AUC0-12", "setting": "[3]", "value": "564 ng·h/mL and 305 ng·h/mL and 42.6 ng·h/mL and 889 ng·h/mL and 169 ng·h/mL"},
      {"measurement": "AUC0-inf", "setting": "[3]", "value": "651 ng · h/mL and 317 ng · h/mL and 43.2 ng · h/mL and 1,351 ng · h/mL and 200 ng · h/mL"},
      {"measurement": "AUC0-last", "setting": "[3]", "value": "564 ng · h/mL and 305 ng · h/mL and 42.6 ng · h/mL and 1,307 ng · h/mL and 169 ng · h/mL"},
      {"measurement": "AUCExtrap", "setting": "[3]", "value": "13.4% and 3.77% and 3.88% and 3.25% and 15.3%"},
      {"measurement": "Cmax", "setting": "[3]", "value": "83.2 ng/mL and 93.9 ng/mL and 28.2 ng/mL and 163 ng/mL and 36.5 ng/mL"},
      {"measurement": "Tlast", "setting": "[3]", "value": "12 h (3×) and 8 h and 96 h"},
      {"measurement": "Tmax", "setting": "[3]", "value": 5.0, "unit": "h"},
      {"measurement": "Plasma concentration", "setting": "single oral dose of 400 mg, fasted, 0 h, individual subjects", "value": "BQL"},
      {"measurement": "Plasma concentration", "setting": "single oral dose of 400 mg, fasted, 0.5 h, individual subjects", "value": "BQL"},
      {"measurement": "AUCExtrap, Geo Mean", "setting": "single oral dose of 400 mg, fasted", "value": 7.6, "unit": "%"},
      {"measurement": "AUC0-inf", "setting": "[4]", "value": "636 ng · h/mL and 98.4 ng · h/mL and 137 ng · h/mL and 169 ng · h/mL and 126 ng · h/mL and 1,950 ng · h/mL and 670 ng · h/mL"},
      {"measurement": "AUCExtrap", "setting": "[4]", "value": "4.07% and 4.18% and 6.90% and 10.7% and 6.70% and 13.0% and 13.4%"},
      {"measurement": "Cmax", "setting": "[4]", "value": "62.1 ng/mL and 62.0 ng/mL and 66.3 ng/mL and 71.0 ng/mL and 37.0 ng/mL and 281 ng/mL and 188 ng/mL"},
      {"measurement": "Tlast", "setting": "[4]", "value": "96 h and 12 h (6×)"},
      {"measurement": "Tmax", "setting": "[4]", "value": 0.5, "unit": "h"},
      {"measurement": "Plasma concentration", "setting": "single oral dose of 800 mg, fasted, 0 h, individual subjects", "value": "BQL"},
      {"measurement": "Plasma concentration", "setting": "single oral dose of 800 mg, fasted, 48 h, individual subject", "value": "BQL"},
      {"measurement": "Plasma concentration", "setting": "single oral dose of 800 mg, fasted, 72 h, individual subject", "value": "BQL"},
      {"measurement": "Plasma concentration", "setting": "single oral dose of 800 mg, fasted, 96 h, individual subject", "value": "BQL"},
      {"measurement": "AUCExtrap", "setting": "single oral dose of 800 mg, fasted, Geo Mean of subjects", "value": 5.6, "unit": "%"},
      {"measurement": "AUC0-12", "setting": "[5]", "value": "287 ng · h/mL and 2,573 ng · h/mL and 182 ng · h/mL and 167 ng · h/mL and 133 ng · h/mL and 583 ng · h/mL and 3,221 ng · h/mL and 251 ng · h/mL"},
      {"measurement": "AUC0-inf", "setting": "[5]", "value": "317 ng · h/mL and 2,665 ng · h/mL and 185 ng · h/mL and 181 ng · h/mL and 141 ng · h/mL and 708 ng · h/mL and 4,902 ng · h/mL"},
      {"measurement": "AUC0-last", "setting": "[5]", "value": "315 ng · h/mL and 2,573 ng · h/mL and 182 ng · h/mL and 167 ng · h/mL and 133 ng · h/mL and 583 ng · h/mL and 4,421 ng · h/mL and 251 ng · h/mL"},
      {"measurement": "AUCExtrap", "setting": "[5]", "value": "4.05% and 3.44% and 1.58% and 8.08% and 5.77% and 17.7% and 9.81%"},
      {"measurement": "Cmax", "setting": "[5]", "value": "129 ng/mL and 1,760 ng/mL and 101 ng/mL and 64.3 ng/mL and 24.0 ng/mL and 80.5 ng/mL and 437 ng/mL and 43.3 ng/mL"},
      {"measurement": "Tlast", "setting": "[5]", "value": "24 h (2×) and 12 h (6×)"},
      {"measurement": "Tmax", "setting": "[5]", "value": "0.5 h and 12 h"}
    ]}
  ]
}
